In patent US6927208B1, “Cyclosporin with improved activity profile” (Debiopharm S.A., priority 1998, dated 2005):

Experiments:
[1] = target: cyclophilin A (Homo sapiens, UniProt P62937); test: competitive ELISA test, affinity of Cs derivatives for cyclophilin A; type: binding; settings: 1.0 = binds as well as CsA, lower than 1.0 = binds better
Experimental: The results of Table 1 show the affinity of the derivatives of Cs for cyclophilin A in a competitive ELISA test described by Quesniaux in Eur. J. Immunology 1987, 17, 1359-1365. In this test, during incubation with cyclophilin, Cs bound to BSA (serum albumin) is added to the Cs to be tested. The concentration required to obtain 50% inhibition (IC50) of the reference reaction in the absence of competitor is then calculated. The results are expressed by the binding index BI which is the ratio of the IC50 of the derivative and the IC50 of CsA.

[2] = test system: HIV in CEM-SS cell line; test: protection during infection with HIV of a CEM-SS cell line (measured by the NCI); type: cell-based; settings: mean value at a derivative concentration of 2×10^−6 molar, compared with infection in the absence of Cs
Experimental: The protection of this line in the presence of a Cs derivative is compared with the infection of a line cultivated in the absence of Cs (reference control). A mean value is established at a concentration of the derivative of 2×10^−6 molar. This anti-HIV activity was measured by the NCI (National Cancer Institute) in Washington in the USA.

[3] = test system: Balb/c mouse spleen cells stimulated with treated CBA mouse spleen cells; test: mixed lymphocyte reaction (MLR), immunosuppressive activity; type: cell-based, mice; settings: 5 days, greater than 1.0 = less active than CsA, >20 = not immunosuppressive
Experimental: Cs is regarded as being immunosuppressive if its activity in the mixed lymphocyte reaction (MLR) is greater than 5%. The reaction (MLR) is described by T. Meo in “Immunological Methods”, L. Lefkovits and […]: 227-239 (1979). Spleen cells (0.5.10^6) originating from Balb/c mice (female, 8 to 10 weeks) are co-incubated for 5 days in the presence of treated spleen cells originating from CBA mice (females, 8 to 10 weeks). These cells were treated with mitomycin C or were irradiated at 2000 rads. […] The IC50 calculated in the MLR test is compared with the IC50 corresponding to CsA in a parallel experiment.

Chain of cyclophilin A (P62937 whole entry, species assumed): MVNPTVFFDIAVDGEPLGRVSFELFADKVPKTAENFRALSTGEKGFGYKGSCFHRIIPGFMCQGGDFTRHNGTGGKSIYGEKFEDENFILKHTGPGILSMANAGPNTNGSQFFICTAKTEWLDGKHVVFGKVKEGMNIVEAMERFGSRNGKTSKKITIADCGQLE

## C/C=C/C[C@@H](C)[C@@H](O)[C@H]1C(=O)N[C@@H](CC)C(=O)N(C)CC(=O)N(C)[C@@H]([C@@H](C)CC)C(=O)N[C@@H](C(C)C)C(=O)N(C)[C@@H](CC(C)C)C(=O)N[C@@H](C)C(=O)N[C@H](C)C(=O)N(C)[C@@H](CC(C)C)C(=O)N(C)[C@@H](CC(C)C)C(=O)N(C)[C@@H](C(C)C)C(=O)N1C [UNIL 007, MeIle^4-Cs]
[1]
  BI (binding index: ratio of the IC50 of the derivative and the IC50 of CsA): 0.5
[2]
  Percentage HIV Protection: 68.5
[3]
  IR (ratio of the IC50 of the MLR test of the derivative over the IC50 of cyclosporin A): >200

## EtIle4-Cs [UNIL 013]
[1]
  BI (binding index: ratio of the IC50 of the derivative and the IC50 of CsA): 1.3
[3]
  IR (ratio of the IC50 of the MLR test of the derivative over the IC50 of cyclosporin A): >200

## EtPhe(4-CH2PO(OMe)2)-Cs [UNIL 014]
[1]
  BI (binding index: ratio of the IC50 of the derivative and the IC50 of CsA): 0.5
[3]
  IR (ratio of the IC50 of the MLR test of the derivative over the IC50 of cyclosporin A): >200

## EtVal^4-Cs [UNIL 004]
[1]
  BI (binding index: ratio of the IC50 of the derivative and the IC50 of CsA): 1.0
[2]
  Percentage HIV Protection: 74.9
[3]
  IR (ratio of the IC50 of the MLR test of the derivative over the IC50 of cyclosporin A): >200

## MeVal^4-Cs [UNIL 002]
[1]
  BI (binding index: ratio of the IC50 of the derivative and the IC50 of CsA): 0.6
[2]
  Percentage HIV Protection: 66.4
[3]
  IR (ratio of the IC50 of the MLR test of the derivative over the IC50 of cyclosporin A): >200

## cyclosporin A [UNIL 001]
[1]
  BI (binding index: ratio of the IC50 of the derivative and the IC50 of CsA): 1.0
[3]
  IR (ratio of the IC50 of the MLR test of the derivative over the IC50 of cyclosporin A): 1.0
